Laboratory results reported in patent publication US8871681B2, “Herbicidal compositions comprising 4-amino-3-chloro-5-fluoro-6-(4-chloro-2-fluoro-3-methoxyphenyl) pyridine-2-carboxylic acid or a derivative thereof and certain sulfonylureas” (Dow AgroSciences LLC, priority 2012, dated 2014).

Tests used:
Assay in all cases: In-water applied weed control, transplanted paddy rice, greenhouse (Example II)
[1] = tested on: LEFCH (Leptochloa chinensis, Chinese sprangletop); format: in vivo, Leptochloa chinensis (L.) Nees
Procedure, shortened: (§1)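 Transplanted rice and weeds at first to fourth true leaf stage in flooded mud pots (2.5–3 cm water), greenhouse ~29/26 °C day/night. Herbicides alone or mixed, in 1.25% crop oil concentrate (acetone for technical material), injected into the flood; visual 0–100% injury after ~3 weeks, expected mixture effects by Colby.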

[2] = tested on: ECHOR (Echinochloa oryzoides, early watergrass); format: in vivo, Echinochloa oryzoides (Ard.) Fritsch
Procedure, shortened: as §1

[3] = tested on: SCPMA (Bolboschoenus maritimus or Schoenoplectus maritimus, sea clubrush); format: in vivo, Bolboschoenus maritimus (L.) Palla
Procedure, shortened: as §1

[4] = Table 28, second set, 70 gae/ha alone

COc1c(Cl)ccc(-c2nc(C(=O)O)c(Cl)c(N)c2F)c1F [Compound A Acid, 4-amino-3-chloro-5-fluoro-6-(4-chloro-2-fluoro-3-methoxy-phenyl)pyridine-2-carboxylic acid]
Visual Weed Control (%) - 19 DAA LEFCH Obs ([1]; Table 31, 42 gae/ha alone): 10% | Visual Weed Control (%) - 22 DAA LEFCH Obs ([1]; Table 34, 10.6 gae/ha alone): 20% | Visual Weed Control (%) - 22 DAA LEFCH Obs ([1]; Table 34, 21.2 gae/ha alone): 40% | Visual Weed Control (%) - 22 DAA LEFCH Obs ([1]; Table 34, 42.4 gae/ha alone): 60% | Visual Weed Control (%) - 21 DAA LEFCH Obs ([1]; Table 36, 17.5 gae/ha alone): 20% | Visual Weed Control (%) - 20 DAA LEFCH Obs ([1]; Table 43, 10.6 gae/ha alone): 30% | Visual Weed Control (%) - 20 DAA LEFCH Obs ([1]; Table 43, 21.2 gae/ha alone): 20% | Visual Weed Control (%) - 20 DAA LEFCH Obs ([1]; Table 43, 42.4 gae/ha alone): 75% | Visual Weed Control (%) - 21 DAA LEFCH Obs ([1]; Table 47, 17.5 gae/ha alone): 20% | Visual Weed Control (%) - 20 DAA LEFCH Obs ([1]; Table 49, 10.6 gae/ha alone): 30% | Visual Weed Control (%) - 20 DAA LEFCH Obs ([1]; Table 49, 21.2 gae/ha alone): 20% | Visual Weed Control (%) - 20 DAA LEFCH Obs ([1]; Table 49, 42.4 gae/ha alone): 75% | Visual Weed Control (%) - 20 DAA ECHOR Obs ([2]; Table 28, 8.75 gae/ha alone): 20% | Visual Weed Control (%) - 20 DAA ECHOR Obs ([2]; Table 28, 17.5 gae/ha alone): 30% | Visual Weed Control (%) - 20 DAA ECHOR Obs ([2]; Table 28, 35 gae/ha alone): 40% | Visual Weed Control (%) - 20 DAA ECHOR Obs ([2]; Table 28, second set, 35 gae/ha alone): 25% | Visual Weed Control (%) - 20 DAA ECHOR Obs [2, 4]: 35% | Visual Weed Control (%) - 25 DAA ECHOR Obs ([2]; Table 31, 8.75 gae/ha alone): 0% | Visual Weed Control (%) - 25 DAA ECHOR Obs ([2]; Table 31, 17.5 gae/ha alone): 0% | Visual Weed Control (%) - 25 DAA ECHOR Obs ([2]; Table 31, 35 gae/ha alone): 40% | Visual Weed Control (%) - 19 DAA ECHOR Obs ([2]; Table 31, 42 gae/ha alone): 15% | Visual Weed Control (%) - 22 DAA ECHOR Obs ([2]; Table 34, 10.6 gae/ha alone): 15% | Visual Weed Control (%) - 22 DAA ECHOR Obs ([2]; Table 34, 21.2 gae/ha alone): 30% | Visual Weed Control (%) - 22 DAA ECHOR Obs ([2]; Table 34, 42.4 gae/ha alone): 40% | Visual Weed Control (%) - 21 DAA ECHOR Obs ([2]; Table 36, 8.75 gae/ha alone): 10% | Visual Weed Control (%) - 21 DAA ECHOR Obs ([2]; Table 36, 17.5 gae/ha alone): 10% | Visual Weed Control (%) - 21 DAA ECHOR Obs ([2]; Table 36, 35 gae/ha alone): 15% | Visual Weed Control (%) - 21 DAA ECHOR Obs ([2]; Table 41, 10.6 gae/ha alone): 0% | Visual Weed Control (%) - 21 DAA ECHOR Obs ([2]; Table 41, 21.2 gae/ha alone): 15% | Visual Weed Control (%) - 21 DAA ECHOR Obs ([2]; Table 41, 42.4 gae/ha alone): 15% | Visual Weed Control (%) - 20 DAA ECHOR Obs ([2]; Table 43, 10.6 gae/ha alone): 10% | Visual Weed Control (%) - 20 DAA ECHOR Obs ([2]; Table 43, 21.2 gae/ha alone): 30% | Visual Weed Control (%) - 20 DAA ECHOR Obs ([2]; Table 43, 42.4 gae/ha alone): 45% | Visual Weed Control (%) - 20 DAA SCPMA Obs ([3]; Table 28, 8.75 gae/ha alone): 40% | Visual Weed Control (%) - 20 DAA SCPMA Obs ([3]; Table 28, 17.5 gae/ha alone): 20% | Visual Weed Control (%) - 20 DAA SCPMA Obs ([3]; Table 28, 35 gae/ha alone): 20% | Visual Weed Control (%) - 20 DAA SCPMA Obs [3, 4]: 0% | Visual Weed Control (%) - 20 DAA SCPMA Obs ([3]; Table 38, 35 gae/ha alone): 0% | Visual Weed Control (%) - 20 DAA SCPMA Obs ([3]; Table 38, 70 gae/ha alone): 0% | Visual Weed Control (%) - 20 DAA SCPMA Obs ([3]; Table 45, 42.4 gae/ha alone): 0% | Visual Weed Control (%) - 20 DAA SCPMA Obs ([3]; Table 45, 84.8 gae/ha alone): 0%

COCC(=O)OC(c1ncccc1S(=O)(=O)NC(=O)Nc1nc(OC)cc(OC)n1)C(C)F (stereo not drawn) [Flucetosulfuron, 1-[3-[[[[(4,6-dimethoxy-2-pyrimidinyl)amino]carbonyl]amino]sulfonyl]-2-pyridinyl]-2-fluoropropyl 2-methoxyacetate]
Visual Weed Control (%) - 21 DAA LEFCH Obs ([1]; Table 36, 0.1 gai/ha alone): 0% | Visual Weed Control (%) - 21 DAA LEFCH Obs ([1]; Table 36, 0.2 gai/ha alone): 0% | Visual Weed Control (%) - 21 DAA ECHOR Obs ([2]; Table 36, 0.1 gai/ha alone): 0% | Visual Weed Control (%) - 21 DAA ECHOR Obs ([2]; Table 36, 0.2 gai/ha alone): 0% | Visual Weed Control (%) - 21 DAA ECHOR Obs ([2]; Table 37, 0.1 gai/ha alone): 0% | Visual Weed Control (%) - 21 DAA ECHOR Obs ([2]; Table 37, 0.2 gai/ha alone): 0%

COc1c(Cl)ccc(-c2nc(C(=O)OCc3ccccc3)c(Cl)c(N)c2F)c1F [Compound A Benzyl Ester]
Visual Weed Control (%) - 22 DAA LEFCH Obs ([1]; Table 35, 4.38 gae/ha alone): 20% | Visual Weed Control (%) - 20 DAA LEFCH Obs ([1]; Table 50, 4.38 gae/ha alone): 20% | Visual Weed Control (%) - 20 DAA ECHOR Obs ([2]; Table 29, 4.38 gae/ha alone): 10% | Visual Weed Control (%) - 20 DAA ECHOR Obs ([2]; Table 29, 8.75 gae/ha alone): 20% | Visual Weed Control (%) - 20 DAA ECHOR Obs ([2]; Table 29, 17.5 gae/ha alone): 30% | Visual Weed Control (%) - 20 DAA ECHOR Obs ([2]; Table 29, 35 gae/ha alone): 53% | Visual Weed Control (%) - 20 DAA ECHOR Obs ([2]; Table 29, 70 gae/ha alone): 73% | Visual Weed Control (%) - 21 DAA ECHOR Obs ([2]; Table 32, 8 gae/ha alone): 8% | Visual Weed Control (%) - 21 DAA ECHOR Obs ([2]; Table 32, 16 gae/ha alone): 5% | Visual Weed Control (%) - 22 DAA ECHOR Obs ([2]; Table 35, 17.5 gae/ha alone): 30% | Visual Weed Control (%) - 21 DAA ECHOR Obs ([2]; Table 37, 8.75 gae/ha alone): 25% | Visual Weed Control (%) - 21 DAA ECHOR Obs ([2]; Table 37, 17.5 gae/ha alone): 25% | Visual Weed Control (%) - 21 DAA ECHOR Obs ([2]; Table 42, 4.38 gae/ha alone): 15% | Visual Weed Control (%) - 21 DAA ECHOR Obs ([2]; Table 42, 8.75 gae/ha alone): 15% | Visual Weed Control (%) - 21 DAA ECHOR Obs ([2]; Table 42, 17.5 gae/ha alone): 20% | Visual Weed Control (%) - 20 DAA ECHOR Obs ([2]; Table 44, 8.75 gae/ha alone): 20% | Visual Weed Control (%) - 20 DAA ECHOR Obs ([2]; Table 44, 17.5 gae/ha alone): 30% | Visual Weed Control (%) - 21 DAA ECHOR Obs ([2]; Table 46, 4.38 gae/ha alone): 0% | Visual Weed Control (%) - 21 DAA ECHOR Obs ([2]; Table 46, 8.75 gae/ha alone): 10% | Visual Weed Control (%) - 21 DAA ECHOR Obs ([2]; Table 46, 17.5 gae/ha alone): 60% | Visual Weed Control (%) - 20 DAA SCPMA Obs ([3]; Table 29, 4.38 gae/ha alone): 10% | Visual Weed Control (%) - 20 DAA SCPMA Obs ([3]; Table 29, 8.75 gae/ha alone): 0% | Visual Weed Control (%) - 20 DAA SCPMA Obs ([3]; Table 29, 17.5 gae/ha alone): 20% | Visual Weed Control (%) - 20 DAA SCPMA Obs ([3]; Table 29, 35 gae/ha alone): 0% | Visual Weed Control (%) - 20 DAA SCPMA Obs ([3]; Table 29, 70 gae/ha alone): 0% | Visual Weed Control (%) - 21 DAA SCPMA Obs ([3]; Table 32, 48 gae/ha alone): 0% | Visual Weed Control (%) - 21 DAA SCPMA Obs ([3]; Table 32, 96 gae/ha alone): 0% | Visual Weed Control (%) - 21 DAA SCPMA Obs ([3]; Table 33, 8 gae/ha alone): 0% | Visual Weed Control (%) - 21 DAA SCPMA Obs ([3]; Table 33, 16 gae/ha alone): 0% | Visual Weed Control (%) - 21 DAA SCPMA Obs ([3]; Table 33, 32 gae/ha alone): 0% | Visual Weed Control (%) - 20 DAA SCPMA Obs ([3]; Table 39, 35 gae/ha alone): 0% | Visual Weed Control (%) - 20 DAA SCPMA Obs ([3]; Table 39, 70 gae/ha alone): 0% | Visual Weed Control (%) - 20 DAA SCPMA Obs ([3]; Table 46, 35 gae/ha alone): 0% | Visual Weed Control (%) - 20 DAA SCPMA Obs ([3]; Table 46, 70 gae/ha alone): 0% | Visual Weed Control (%) - 21 DAA SCPMA Obs ([3]; Table 48, 8 gae/ha alone): 0% | Visual Weed Control (%) - 21 DAA SCPMA Obs ([3]; Table 48, 16 gae/ha alone): 0% | Visual Weed Control (%) - 21 DAA SCPMA Obs ([3]; Table 48, 32 gae/ha alone): 0%

COC(=O)c1ccccc1S(=O)(=O)NC(=O)Nc1nc(C)nc(OC)n1 [Metsulfuron-methyl, methyl 2-[[[[(4-methoxy-6-methyl-1,3,5-triazin-2-yl)amino]carbonyl]amino]sulfonyl]benzoate, reference compound]
Visual Weed Control (%) - 21 DAA ECHOR Obs ([2]; Table 41, 7.5 gai/ha alone): 50% | Visual Weed Control (%) - 21 DAA ECHOR Obs ([2]; Table 41, 15 gai/ha alone): 65% | Visual Weed Control (%) - 21 DAA ECHOR Obs ([2]; Table 42, 7.5 gai/ha alone): 50% | Visual Weed Control (%) - 21 DAA ECHOR Obs ([2]; Table 42, 15 gai/ha alone): 65%

COC(=O)c1ccccc1CS(=O)(=O)NC(=O)Nc1nc(OC)cc(OC)n1 [Bensulfuron-methyl, methyl 2-[[[[[(4,6-dimethoxy-2-pyrimidinyl)amino]carbonyl]amino]sulfonyl]methyl]benzoate, reference compound]
Visual Weed Control (%) - 19 DAA LEFCH Obs ([1]; Table 31, 70 gai/ha alone): 23% | Visual Weed Control (%) - 25 DAA ECHOR Obs ([2]; Table 31, 35 gai/ha alone): 80% | Visual Weed Control (%) - 19 DAA ECHOR Obs ([2]; Table 31, 70 gai/ha alone): 78% | Visual Weed Control (%) - 25 DAA ECHOR Obs ([2]; Table 31, 70 gai/ha alone): 85% | Visual Weed Control (%) - 21 DAA ECHOR Obs ([2]; Table 32, 35 gai/ha alone): 0% | Visual Weed Control (%) - 21 DAA ECHOR Obs ([2]; Table 32, 70 gai/ha alone): 15% | Visual Weed Control (%) - 21 DAA SCPMA Obs ([3]; Table 32, 17.5 gai/ha alone): 45% | Visual Weed Control (%) - 21 DAA SCPMA Obs ([3]; Table 32, 35 gai/ha alone): 90%
